# Laboratory results: the supplement of paper PMC10307832
# What was measured:
# Assay in all cases: relative viability (nuclei count vs DMSO), 5 days (fraction); higher = more cells survive
# 201T = system: 201T
# Outline: (§1)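 Lung cancer cell lines were pin-tool dosed in 1536-well plates on the day after seeding, with either a lone drug or a fixed anchor-drug dose plus five library-drug doses (not always all listed) in √10 steps. Nuclei were counted on 4× images after 5 days. Relative viability is the ratio of treated-well to vehicle-well nuclei counts, with each value a median of duplicate plates.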
# A-427 = system: A-427
# Outline: as §1
# COR-L 105 = system: COR-L 105
# Outline: as §1
# COR-L23 = system: COR-L23
# Outline: as §1
# EKVX = system: EKVX
# Outline: as §1
# HARA = system: HARA
# Outline: as §1
# HCC-15 = system: HCC-15
# Outline: as §1
# HCC-44 = system: HCC-44
# Outline: as §1
# HCC-827 = system: HCC-827
# Outline: as §1
# LCLC-103H = system: LCLC-103H
# Outline: as §1
# LK-2 = system: LK-2
# Outline: as §1
# NCI-H1437 = system: NCI-H1437
# Outline: as §1
# NCI-H1666 = system: NCI-H1666
# Outline: as §1
# NCI-H1792 = system: NCI-H1792
# Outline: as §1
# NCI-H1975 = system: NCI-H1975
# Outline: as §1
# NCI-H23 = system: NCI-H23
# Outline: as §1
# NCI-H441 = system: NCI-H441
# Outline: as §1
# NCI-H520 = system: NCI-H520
# Outline: as §1
# NCI-H596 = system: NCI-H596
# Outline: as §1
# NCI-H650 = system: NCI-H650
# Outline: as §1
# NCI-H838 = system: NCI-H838
# Outline: as §1
# SK-MES-1 = system: SK-MES-1
# Outline: as §1
smiles,measurement,setting,value
CC(C)Oc1cc(Nc2nc(N[C@@H](C)c3ccc(F)cn3)ncc2Cl)n[nH]1 [AZ23] + C[C@@H](Oc1cc(-c2cnn(C3CCNCC3)c2)cnc1N)c1c(Cl)ccc(F)c1Cl [Crizotinib] (partner 1 µM),relative viability,201T; first compound 0.01 µM,1.06
same,relative viability,201T; first compound 0.03162 µM,1.05
same,relative viability,201T; first compound 0.3162 µM,1.01
same,relative viability,A-427; first compound 0.01 µM,0.942
same,relative viability,A-427; first compound 0.03162 µM,0.951
same,relative viability,A-427; first compound 0.3162 µM,0.754
same,relative viability,COR-L 105; first compound 0.01 µM,0.618
same,relative viability,COR-L 105; first compound 0.03162 µM,0.825
same,relative viability,COR-L 105; first compound 0.3162 µM,0.786
same,relative viability,COR-L23; first compound 0.01 µM,0.763
same,relative viability,COR-L23; first compound 0.03162 µM,0.828
same,relative viability,COR-L23; first compound 0.3162 µM,0.766
same,relative viability,EKVX; first compound 0.01 µM,1.05
same,relative viability,EKVX; first compound 0.03162 µM,1.03
same,relative viability,EKVX; first compound 0.3162 µM,1.03
same,relative viability,HARA; first compound 0.01 µM,1.2
same,relative viability,HARA; first compound 0.03162 µM,0.904
same,relative viability,HARA; first compound 0.3162 µM,0.983
same,relative viability,HCC-15; first compound 0.01 µM,1.1
same,relative viability,HCC-15; first compound 0.03162 µM,0.881
same,relative viability,HCC-15; first compound 0.3162 µM,0.884
same,relative viability,HCC-44; first compound 0.01 µM,0.934
same,relative viability,HCC-44; first compound 0.03162 µM,0.952
same,relative viability,HCC-44; first compound 0.3162 µM,0.826
same,relative viability,HCC-827; first compound 0.01 µM,0.993
same,relative viability,HCC-827; first compound 0.03162 µM,1.03
same,relative viability,HCC-827; first compound 0.3162 µM,0.881
same,relative viability,LCLC-103H; first compound 0.01 µM,1.13
same,relative viability,LCLC-103H; first compound 0.03162 µM,1.13
same,relative viability,LCLC-103H; first compound 0.3162 µM,1.13
same,relative viability,LK-2; first compound 0.03162 µM,0.223
same,relative viability,LK-2; first compound 0.3162 µM,0.216
same,relative viability,NCI-H1437; first compound 0.01 µM,1.21
same,relative viability,NCI-H1437; first compound 0.03162 µM,0.996
same,relative viability,NCI-H1437; first compound 0.3162 µM,1.03
same,relative viability,NCI-H1666; first compound 0.01 µM,1.03
same,relative viability,NCI-H1666; first compound 0.03162 µM,0.978
same,relative viability,NCI-H1666; first compound 0.3162 µM,1.02
same,relative viability,NCI-H1792; first compound 0.01 µM,1.47
same,relative viability,NCI-H1792; first compound 0.03162 µM,1.27
same,relative viability,NCI-H1792; first compound 0.3162 µM,1.01
same,relative viability,NCI-H1975; first compound 0.01 µM,1.44
same,relative viability,NCI-H1975; first compound 0.03162 µM,0.953
same,relative viability,NCI-H1975; first compound 0.3162 µM,1.09
same,relative viability,NCI-H23; first compound 0.03162 µM,0.617
same,relative viability,NCI-H23; first compound 0.3162 µM,0.539
same,relative viability,NCI-H441; first compound 0.01 µM,1.15
same,relative viability,NCI-H441; first compound 0.03162 µM,0.914
same,relative viability,NCI-H441; first compound 0.3162 µM,0.774
same,relative viability,NCI-H520; first compound 0.01 µM,0.869
same,relative viability,NCI-H520; first compound 0.03162 µM,0.864
same,relative viability,NCI-H520; first compound 0.3162 µM,0.732
same,relative viability,NCI-H596; first compound 0.01 µM,0.97
same,relative viability,NCI-H596; first compound 0.03162 µM,1.05
same,relative viability,NCI-H596; first compound 0.3162 µM,0.896
same,relative viability,NCI-H650; first compound 0.01 µM,0.866
same,relative viability,NCI-H650; first compound 0.03162 µM,0.813
same,relative viability,NCI-H650; first compound 0.3162 µM,0.847
same,relative viability,NCI-H838; first compound 0.01 µM,0.702
same,relative viability,NCI-H838; first compound 0.03162 µM,0.889
same,relative viability,NCI-H838; first compound 0.3162 µM,0.803
same,relative viability,SK-MES-1; first compound 0.01 µM,1.02
same,relative viability,SK-MES-1; first compound 0.03162 µM,1.14
same,relative viability,SK-MES-1; first compound 0.3162 µM,0.938
